According to article PMC4644980, “The FDA-approved natural product dihydroergocristine reduces the production of the Alzheimer’s disease amyloid-β peptides” (Scientific Reports, 2015):
Several values for one entry are separate records, joined by “and”; a condition that tells them apart may be missing. Equal values may be shown once. Where a name gives a salt, the structure may show the parent alone.

Key:
purified γ-secretase = target: T1, purified γ-secretase (Homo sapiens, UniProt P49768+Q92542); assay: cell-free in vitro C100-Flag γ-secretase assay with purified enzyme; type: biochemical
T1 construct: made in house
Excerpt: The density of the AICD-Flag and Aβ total bands was quantified by Odyssey software (Supplementary data Fig. S5). […] The residue was then separated by Bicine/urea SDS-PAGE, together with an Aβ standard of synthetic human Aβ38, Aβ40 and Aβ42, followed by Western blot detection with anti-Aβ antibody (6E10, left panel), or quantification by ELISA (right panel). Black bars, Aβ [1–40]; gray bars, Aβ[1–42]. Data were presented as the means ± sd. […] The change in response units over time is shown. […]
γ-Secretase was purified from S-20 cells as described previously. The recombinant APP-based protein substrate of γ-secretase, namely human C100-Flag, was overexpressed in E. coli and purified by using an anti-Flag M2 resin[31]. Full length human NCT was purified as described previously (for details, see Supplementary information)[32].
Cell-free in vitro γ-secretase assays using the recombinant C100-Flag substrate and purified γ-secretase were performed as described in the Supplementary information.
Aβ1-x peptides secreted in the cell media were quantitatively measured by ELISA (IBL, Gunma, Japan) according to the standard protocol from the manufacturer. Aβ40 and Aβ42 generated in the C100-Flag γ-secretase assays stopped with 0.5% SDS (final concentration) were quantified with the human Beta Amyloid or [1–42] colorimetric ELISA kit, respectively. […]
γ-Secretase activity assays
γ-Secretase purified from S-20 cells was solubilized in 0.2% (w/v) CHAPSO in 50 mM HEPES buffer (pH 7.0) containing of 150 mM NaCl, 5 mM MgCl2 and 5 mM CaCl2, and incubated with 0.1% (w/v) PC and 1 μM or otherwise indicated […]
(§1) concentrations of substrate at 37 °C for 4 h, after which the enzymatic reactions were stopped by adding 0.5% SDS (final concentration). The samples were analyzed by Western Blot for AICD-Flag or Aβ. […]

γ-secretase = γ-secretase (Homo sapiens, UniProt P49768+Q92542); assay: cell-based luciferase reporter assay for γ-secretase inhibition (T100 cells); parameters: endogenous in cells; host or cells: T-REx HeLa cells (T100) stably transfected with the substrate C99-Gal4-VP16 and a luciferase reporter; conditions: 24 h, read-out: IC50 for inhibiting the activity of γ-secretase in T100 cells
Protocol: To identify natural product-based bioactive inhibitors of γ-secretase, we screened 417 natural products by using a cell-based luciferase reporter assay for γ-secretase inhibition (T100, see Methods), which we recently developed in TREx HeLa cells according to the methodology described in ref. [17]. […] Thus, this assay is sufficiently sensitive to detect the inhibitory effects of 100 nM DAPT on cellular γ-secretase activity. Additionally, this new cell-based assay tolerated up to 2% DMSO, which is a great advantage when screening inhibitors in a high-throughput format.
T-REx-HeLa cells (T100) stably overexpressing C99-Gal4-VP16 and luciferase were generated according to the method described in refs [17],[30]. For details, see Supplementary Information.
Cell-based γ-secretase assays were performed using the T100 cell line according to the methods detailed in ref. [30] (for details, see Supplementary information). […]
as §1

Q: `CC(C)[C@@]1(NC(=O)[C@@H]2C[C@@H]3c4cccc5[nH]cc(c45)C[C@H]3N(C)C2)O[C@@]2(O)[C@@H]3CCCN3C(=O)[C@H](Cc3ccccc3)N2C1=O` [DHEC, Dihydroergocristine methanesulfonate salt] was tested. Which “γ-secretase-dependent processing of C100-Flag into AICD-Flag or Aβ” value (purified γ-secretase; 1 μM C100-Flag, 37 °C, 4 h) did it give?
A: inhibited

Q: And the “inhibitory effect on γ-secretase at high substrate concentration” value (purified γ-secretase; 4 μM APP-C100 compared to 1 μM)?
A: greatly reduced inhibitory effect

Q: What about the “The potency of compound (in vitro C100 γ-secretase assay)” value (purified γ-secretase; 200 µM, compared with DHEC, estimated by densitometry) of the same compound?
A: ++

Q: And the IC50 (purified γ-secretase; IC50, Aβ40 and Aβ42 production (cell-free assay), 1 μM C100-Flag, 37 °C, 4 h, ELISA)?
A: ~100 µM and 100 µM

Q: What about the IC50 (γ-secretase) of the same compound?
A: 20 µM and ~25 µM
